The target of test [1] is T1, Beta-secretase 1 (Homo sapiens, UniProt P56817). The test is described as follows: Inhibition of recombinant human BACE1 using (7-methoxycoumarin-4-yl)acetyl-SEVNL*DAEFRK(2,4-dinitrophenyl)-RR-NH2) as substrate at 2 uM by FRET assay.
Test [2] addresses T1, Beta-secretase 1. Kind of test: Inhibition of recombinant human BACE1 using (7-methoxycoumarin-4-yl)acetyl-SEVNL*DAEFRK(2,4-dinitrophenyl)-RR-NH2) as substrate by FRET assay.
For test [3], the target named is T1, Beta-secretase 1. Kind of test: Inhibition of recombinant human BACE1 using (7-methoxycoumarin-4-yl)acetyl-SEVNL*DAEFRK(2,4-dinitrophenyl)-RR-NH2) as substrate at 0.2 uM by FRET assay.

The structures appear in SMILES notation.

T1 sequence (P56817 whole entry): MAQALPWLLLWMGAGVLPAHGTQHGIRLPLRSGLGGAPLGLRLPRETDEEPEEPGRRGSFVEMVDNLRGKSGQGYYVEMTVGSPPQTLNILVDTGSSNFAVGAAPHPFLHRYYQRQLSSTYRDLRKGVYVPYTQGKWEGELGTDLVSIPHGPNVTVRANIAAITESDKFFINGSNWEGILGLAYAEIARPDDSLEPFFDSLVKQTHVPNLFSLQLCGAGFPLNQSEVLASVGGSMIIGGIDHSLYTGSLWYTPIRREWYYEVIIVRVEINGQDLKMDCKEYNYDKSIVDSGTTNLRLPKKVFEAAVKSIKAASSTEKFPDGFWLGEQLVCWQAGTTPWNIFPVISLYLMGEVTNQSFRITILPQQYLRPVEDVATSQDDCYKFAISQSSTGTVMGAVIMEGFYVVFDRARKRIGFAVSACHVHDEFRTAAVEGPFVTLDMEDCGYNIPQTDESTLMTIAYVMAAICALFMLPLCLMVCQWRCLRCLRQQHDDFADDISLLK

With `C[C@@H](NC(=O)c1cc(=O)cc(C(=O)N[C@@H](Cc2ccccc2)[C@H](O)C(=O)Nc2cccc(-c3nn[nH]n3)c2)o1)c1cccc(F)c1`, the inhibition in test [1] is 62%.

On to `[N-]=[N+]=Nc1cc(C(=O)N[C@@H](Cc2ccccc2)[C@H](O)C(=O)Nc2cccc(-c3nn[nH]n3)c2)nc(C(=O)N2COC[C@@H]2c2ccccc2)c1`, for which the IC50 in test [2] turned out to be 79 nM. The figures for the inhibition in test [3] and in test [1] were 68% and 95%, respectively. `CCCN(CCC)C(=O)c1cc(=O)cc(C(=O)N[C@@H](Cc2ccccc2)[C@@H](O)C(=O)Nc2cccc(C(=O)O)c2)o1`: in test [1], the inhibition stood at 10%. With `O=C(NC(c1ccccc1)c1ccccc1)c1cc(=O)cc(C(=O)N[C@@H](Cc2ccccc2)[C@H](O)C(=O)Nc2cccc(-c3nn[nH]n3)c2)o1`, in test [1], the inhibition worked out at 13%. For the molecule `CCOc1cc(C(=O)N[C@@H](Cc2ccccc2)[C@H](O)C(=O)Nc2cccc(-c3nn[nH]n3)c2)nc(C(=O)N[C@H](C)c2ccccc2)c1`, the inhibition in test [1] was 46%. As for `CCCN(CCC)C(=O)c1cc(=O)cc(C(=O)N[C@@H](Cc2ccccc2)[C@@H](O)C(=O)Nc2cccc(-c3nnn[nH]3)c2)o1`, the inhibition in test [1] came to 60%. Regarding `CSc1cc(C(=O)N[C@@H](Cc2ccccc2)[C@H](O)C(=O)Nc2cccc(-c3nn[nH]n3)c2)nc(C(=O)N2COC[C@@H]2c2ccccc2)c1`, the IC50 in test [2] came out at 89 nM. Besides, the inhibition worked out at 66% in test [3] and 95% in test [1]. With `COc1cc(C(=O)N[C@@H](Cc2ccccc2)[C@H](O)C(=O)Nc2cccc(-c3nn[nH]n3)c2)nc(C(=O)NC(C)(C)c2ccccc2)c1`, the inhibition in test [1] was 74%. Turning to `CCCOc1cc(C(=O)N[C@@H](Cc2ccccc2)[C@H](O)C(=O)Nc2cccc(-c3nn[nH]n3)c2)nc(C(=O)N2COC[C@@H]2c2ccccc2)c1`, the inhibition in test [1] was 64%. On the same count and under the same terms, next, `C[C@@H](NC(=O)c1cc(OS(=O)(=O)Cc2ccccc2)cc(C(=O)N[C@@H](Cc2ccccc2)[C@H](O)C(=O)Nc2cccc(-c3nn[nH]n3)c2)n1)c1ccccc1`: 29%; `CCOc1cc(C(=O)N[C@@H](Cc2ccccc2)[C@H](O)C(=O)Nc2cccc(-c3nn[nH]n3)c2)nc(C(=O)N2COC[C@@H]2c2ccccc2)c1`: 79%. As to `COc1cccc([C@@H](C)NC(=O)c2cc(=O)cc(C(=O)N[C@@H](Cc3ccccc3)[C@H](O)C(=O)Nc3cccc(-c4nn[nH]n4)c3)o2)c1`, the inhibition in test [1] worked out at 48%. Regarding `CN(c1cc(C(=O)N[C@@H](Cc2ccccc2)[C@H](O)C(=O)Nc2cccc(-c3nn[nH]n3)c2)nc(C(=O)N2COC[C@@H]2c2ccccc2)c1)S(C)(=O)=O`, in test [1], the inhibition worked out at 75%. The same measure, in the same setting: next, `O=C(N[C@@H](CO)c1ccccc1)c1cc(=O)cc(C(=O)N[C@@H](Cc2ccccc2)[C@H](O)C(=O)Nc2cccc(-c3nn[nH]n3)c2)o1`: 11%; `CCCN(CCC)C(=O)c1cc(=O)cc(C(=O)N[C@@H](Cc2ccccc2)[C@H](O)C(=O)Nc2cccc(-c3nnn[nH]3)c2)o1`: 6%; `O=C(NCc1ccccc1)c1cc(=O)cc(C(=O)N[C@@H](Cc2ccccc2)[C@H](O)C(=O)Nc2cccc(-c3nn[nH]n3)c2)o1`: 25%.

Consider `CCOc1cc(C(=O)N[C@@H](Cc2ccccc2)[C@H](O)C(=O)Nc2cccc(-c3nn[nH]n3)c2)nc(C(=O)NC(C)(C)c2ccccc2)c1`, for which the inhibition in test [1] turned out to be 42%. Turning to `Nc1cc(C(=O)N[C@@H](Cc2ccccc2)[C@H](O)C(=O)Nc2cccc(-c3nn[nH]n3)c2)nc(C(=O)N2COC[C@@H]2c2ccccc2)c1`, the inhibition was 53% in test [3] and 78% in test [1]. As for `COc1ccc([C@@H](C)NC(=O)c2cc(=O)cc(C(=O)N[C@@H](Cc3ccccc3)[C@H](O)C(=O)Nc3cccc(-c4nn[nH]n4)c3)o2)cc1`, in test [1], the inhibition amounted to 70%. As to `CSc1cc(C(=O)N[C@@H](Cc2ccccc2)[C@H](O)C(=O)Nc2cccc(-c3nn[nH]n3)c2)nc(C(=O)NC(C)(C)c2ccccc2)c1`, the inhibition in test [1] turned out to be 85%. On to `CCCN(CCC)C(=O)c1cc(=O)cc(C(=O)N[C@@H](Cc2ccccc2)[C@@H](O)C(=O)Nc2cccc(-c3noc(=O)[nH]3)c2)o1`, for which the inhibition in test [1] is 23%.

`Cc1ccc([C@@H](C)NC(=O)c2cc(=O)cc(C(=O)N[C@@H](Cc3ccccc3)[C@H](O)C(=O)Nc3cccc(-c4nn[nH]n4)c3)o2)cc1`: the inhibition in test [1] was 54%. Turning to `CSc1cc(C(=O)N[C@@H](Cc2ccccc2)[C@H](O)C(=O)Nc2cccc(-c3nn[nH]n3)c2)nc(C(=O)N[C@H](C)c2ccccc2)c1`, the inhibition in test [1] came out at 82%.

As to `C[C@@H](NC(=O)c1cc(=O)cc(C(=O)N[C@@H](Cc2ccccc2)[C@H](O)C(=O)Nc2cccc(-c3nn[nH]n3)c2)o1)c1ccc(Cl)cc1`, in test [1], the inhibition turned out to be 61%.

Regarding `CC[C@@H](NC(=O)c1cc(=O)cc(C(=O)N[C@@H](Cc2ccccc2)[C@H](O)C(=O)Nc2cccc(-c3nn[nH]n3)c2)o1)c1ccccc1`, in test [1], the inhibition amounted to 32%. For the molecule `COc1cc(C(=O)N[C@@H](Cc2ccccc2)[C@H](O)C(=O)Nc2cccc(-c3nn[nH]n3)c2)nc(C(=O)N[C@H](C)c2ccccc2)c1`, the inhibition in test [1] is 73%. For the molecule `C[C@@H](NC(=O)c1cc(=O)cc(C(=O)N[C@@H](Cc2ccccc2)[C@H](O)C(=O)Nc2cccc(-c3nn[nH]n3)c2)o1)C1CCCCC1`, in test [1], the inhibition stood at 26%. In the case of `Cc1cc(C(=O)N[C@@H](Cc2ccccc2)[C@H](O)C(=O)Nc2cccc(-c3nn[nH]n3)c2)nc(C(=O)N2COC[C@@H]2c2ccccc2)c1`, the inhibition was 68% in test [3] and 95% in test [1]. On to `COc1cc(C(=O)N[C@@H](Cc2ccccc2)[C@H](O)C(=O)Nc2cccc(-c3nn[nH]n3)c2)nc(C(=O)N2COC[C@@H]2c2ccccc2)c1`, for which the IC50 in test [2] is 151 nM. Moreover, the inhibition in test [3] stood at 53%; in test [1], 91%.

Consider `O=C(N[C@@H](Cc1ccccc1)[C@H](O)C(=O)Nc1cccc(-c2nn[nH]n2)c1)c1cc(=O)cc(C(=O)N(Cc2ccccc2)Cc2ccccc2)o1`, for which the inhibition in test [1] worked out at 29%. Still for that read-out and setting: the same measure for `CN(Cc1ccccc1)C(=O)c1cc(=O)cc(C(=O)N[C@@H](Cc2ccccc2)[C@H](O)C(=O)Nc2cccc(-c3nn[nH]n3)c2)o1`: 67%.

As for `CC(C)Sc1cc(C(=O)N[C@@H](Cc2ccccc2)[C@H](O)C(=O)Nc2cccc(-c3nn[nH]n3)c2)nc(C(=O)N2COC[C@@H]2c2ccccc2)c1`, the inhibition in test [1] was found to be 72%. In the case of `C[C@@H](NC(=O)c1cc(=O)cc(C(=O)N[C@@H](Cc2ccccc2)[C@H](O)C(=O)Nc2cccc(-c3nn[nH]n3)c2)o1)c1ccc(F)cc1`, in test [1], the inhibition worked out at 76%. As to `C[C@@H](NC(=O)c1cc(=O)cc(C(=O)N[C@@H](Cc2ccccc2)[C@H](O)C(=O)Nc2cccc(-c3nn[nH]n3)c2)o1)c1ccc([N+](=O)[O-])cc1`, the inhibition in test [1] stood at 51%.

Take `CN(NC(=O)c1cc(=O)cc(C(=O)N[C@@H](Cc2ccccc2)[C@H](O)C(=O)Nc2cccc(-c3nn[nH]n3)c2)o1)c1ccccc1`: the inhibition in test [1] was found to be 21%. As for `C[C@H](NC(=O)c1cc(=O)cc(C(=O)N[C@@H](Cc2ccccc2)[C@H](O)C(=O)Nc2cccc(-c3nn[nH]n3)c2)o1)c1ccccc1`, the inhibition in test [1] was found to be 25%.
